# Results from publication PMC5841205, “Pharmacological targeting of apelin impairs glioblastoma growth” (Brain, 2017).
# Experiments:
# GSC#1 [1] = assay: Tumoursphere formation, tideglusib; assay type: cell-based, human; details: GSC#1, tideglusib 2.5 μM with apelin 1 μM
# Procedure: (§1) To test the tumoursphere formation, GSCs (100 cells/µl) were plated in triplicate in indicated media as previously described ([Harford-Wright et al., 2016]). Cells were manually dissociated each day and a single cell suspension maintained until Day 5. Tumourspheres were counted in five random fields of view, and the mean from the triplicate of each condition calculated from three independent experiments.
# (§2) Figure 4 Pharmacological inhibition of APLNR impairs the effects of the endothelial secretome on GSCs by inhibition of GSK3β signalling. (A) Molecular structure and primary sequence of the competitive APLNR antagonist MM54. […] (C) The percentage of calcium flux inhibition following MM54 treatment (0.4–10 μM) in the G-protein coupled receptor hits. […] (J) Reverse protein phase array (RPPA) from the TCGA database were analysed in low and high APLNR expressing glioblastoma samples. *P < 0.05; **P < 0.01 compared to the low APLNR condition. […] (N) GSC #1 received sic (control) or GSK3B targeting siRNA (siGSK3B) and tumoursphere per field of view was quantified in MF supplemented with purified apelin (APLN, 1 μM). *P < 0.05 compared to the sic MF condition.
# GSC #1 = assay: Limiting dilution assay, tideglusib; assay type: cell-based, human; details: GSC#1, tideglusib 2.5 μM with apelin 1 μM
# Procedure: as §2, with “hits. (D) Tumoursphere per field of view (fov) in response to MM54 (0–4 μM) treatment in GSC#1 maintained in human brain endothelial cell-conditioned medium (EC-CM) and apelin-supplemented mitogen-free MF media (APLN, 1 μM) for 5 days. *P < 0.05 compared to EC-CM DMSO control, ^#P < 0.05 compared to apelin DMSO control. […] (F) Stem cell frequency in apelin supplemented media in response to MM54 (2 μM) in GSCs #1, #4, #9 and #12. *P < 0.05 compared to the vehicle condition. (G) Flow cytometry analysis of the percentage of ALDH positive and negative GSC #1 in response to 2, 10 or 20 μM of MM54 at Day 5.” for “hits.”
# GSC#1 ALDH activity = assay: ALDH activity (ALDEFLUOR flow cytometry); assay type: cell-based, human
# Procedure: Analysis of aldehyde dehydrogenase (ALDH) activity was performed using the ALDEFLUOR™ assay kit (Stem Cell Technologies). Briefly, cells were incubated with ALDEFLUOR alone or in combination with an ALDH activity inhibitor (DAEB) at 37°C for 45 min. This flow cytometry-based staining allows monitoring ALDH activity in stem, progenitor and cancer precursor cells. The ALDH activity is considered positive in comparison to cells incubated with DEAB reagent.
# as §2, with “hits. (D) Tumoursphere per field of view (fov) in response to MM54 (0–4 μM) treatment in GSC#1 maintained in human brain endothelial cell-conditioned medium (EC-CM) and apelin-supplemented mitogen-free MF media (APLN, 1 μM) for 5 days. *P < 0.05 compared to EC-CM DMSO control, ^#P < 0.05 compared to apelin DMSO control. […] (F) Stem cell frequency in apelin supplemented media in response to MM54 (2 μM) in GSCs #1, #4, #9 and #12. *P < 0.05 compared to the vehicle condition. (G) Flow cytometry analysis of the percentage of ALDH positive and negative GSC #1 in response to 2, 10 or 20 μM of MM54 at Day 5. ALDH activity corresponds to the percentage of cells that contains ALDH activity (positive) or not (negative), normalized to the vehicle condition. *P < 0.05; ***P < 0.001 compared to the vehicle condition.” for “hits.”
# (§3) Figure 5 Pharmacological inhibition of APLNR by MM54 impairs the in vitro expansion of temozolomide-resistant GSCs. (A) Cell viability following treatment with DMSO, MM54 (2, 20 and 100 μM) or temozolomide (TMZ, 50 μM) was measured using UptiBlue in different cell types for 3 days. […] (B and C) Cell viability following treatment with DMSO or TMZ (100 μM) was measured using UptiBlue in GSCs #1, #4, #9, and #12 for 3 days. […] (D) GSC#1 viability was assessed following combined treatment with MM54 (0.2–20 μM) and TMZ (constant ratios TMZ:MM54 2.5:1, 5:1, and 10:1) in NS and human brain endothelial cell-conditioned medium (EC-CM) conditions. (E and F) Tumoursphere per field of view (fov) and ALDH activity were assessed in response to MM54 (0.2–100 μM) or TMZ (10–100 μM) treatment at Day 5. […]
# [2] = test system: U87 glioblastoma cell line; assay: Cell viability (UptiBlue), U87; assay type: cell-based, human
# Procedure: (§4) Cell viability in response to MM54 was tested using the UptiBlue reagent (Interchim), a fluorometric/colorimetric growth indicator based on the detection of metabolic activity. Briefly, cells were seeded at a density of 2 × 10^3 per well, UptiBlue added at a concentration of 10% v/v and cells maintained at 37°C 5% CO2 until analysis. Absorbance was measured at Day 5 following treatment at 570 and 600 nm on a FLUOStar OPTIMA (BMG Labtech) plate reader, and the percentage of cell viability calculated according to the manufacturer’s instructions.
# as §3
# [3] = test system: LN229 glioblastoma cell line; assay: Cell viability (UptiBlue), LN229; assay type: cell-based, human; details: TMZ
# Procedure: as §4, §3
# [4] = test system: GSCs (glioblastoma patient-derived cells with stem-like properties); assay: Tumoursphere formation, APLNR antagonists and TMZ; assay type: cell-based, human; details: GSC#1, TMZ 10–100 μM, Day 5
# Procedure: as §1
# Figure 4 Pharmacological inhibition of APLNR impairs the effects of the endothelial secretome on GSCs by inhibition of GSK3β signalling. (A) Molecular structure and primary sequence of the competitive APLNR antagonist MM54. […] (J) Reverse protein phase array (RPPA) from the TCGA database were analysed in low and high APLNR expressing glioblastoma samples. *P < 0.05; **P < 0.01 compared to the low APLNR condition. […] (N) GSC #1 received sic (control) or GSK3B targeting siRNA (siGSK3B) and tumoursphere per field of view was quantified in MF supplemented with purified apelin (APLN, 1 μM). *P < 0.05 compared to the sic MF condition.
# Figure 5 Pharmacological inhibition of APLNR by MM54 impairs the in vitro expansion of temozolomide-resistant GSCs. (A) Cell viability following treatment with DMSO, MM54 (2, 20 and 100 μM) or temozolomide (TMZ, 50 μM) was measured using UptiBlue in different cell types for 3 days. […]
# GSCs #1, #4, #9, and #12 = assay: Cell viability (UptiBlue), GSCs; assay type: cell-based, human; details: TMZ 100 μM, GSCs #1, #4 and #9, serum-containing medium, 3 days
# Procedure: as §4, §3
# [5] = test system: GSCs (glioblastoma patient-derived cells with stem-like properties); assay: Tumoursphere formation, apelin peptides; assay type: cell-based, human; details: for number of tumourspheres: 1 μM apelin peptide in mitogen-free medium (MF), GSCs #1, #9, #12 and #13, vs MF, 5 days
# From the text: Glioblastoma patient-derived cells with stem-like properties (GSCs) were isolated as previously described ([Treps et al., 2016]). Briefly, tumours were dissociated using the MACsDissociator (Miltenyi) and each GSC characterized for their self-renewal capabilities, cell surface antigens, expression of stemness markers, their ability to differentiate, and to initiate tumour formation (Supplementary Table 1). GSCs 1–16 were maintained as spheres in NS medium (DMEM-F12, with N2, G5 and B27 supplements, GlutaMAX™ and antibiotics, Life Technologies). To induce differentiation in GSCs, the three supplements were omitted and 10% foetal bovine serum added to the media.
# as §1
# (§5) (C) Confocal analysis of NESTIN (green), SOX2 (red) and nuclei (DAPI, blue) in GSC#1 grown in NS, MF, human brain endothelial cell-conditioned medium (EC-CM) or MF+APLN (1 μM). Scale bars = 20 µm. (D) Linear regression plot of in vitro limiting dilution assay (LDA) for GSC#1 in NS, EC-CM, MF, and MF+APLN (1 μM). Data are representative of n = 2. […] (F) Stem cell frequency in GSCs #1, #2, #4, #9 and #12 in response to MF and APLN conditions. […] (H) EC received non-silencing RNA (sic) or siRNA targeting APLN (siAPLN) and APLN knockdown efficiency assessed by RT-PCR and ELISA. […] (K) FACS analysis of the proliferation marker Ki67 in GSCs #4 and #9 in NS and MF+APLN conditions. All panels are representative of n = 3, unless otherwise specified.
# endothelial cells = details: ref Kleinz and Davenport, 2005; cited from earlier work
# From the text: Moreover, apelin has been implicated in physiological and pathological angiogenesis ([Kaelin et al., 2007]). […] In keeping with this, a recent study proposed apelin as a marker for monitoring tumour vessel normalization and response to anti-angiogenic therapy ([Zhang et al., 2016]; [Zuurbier et al., 2017]).
# GSC#1 [6] = details: GSC#1, synthetic apelin 1 μM added to MF
# Procedure: as §5
# [7] = test system: GSCs (glioblastoma patient-derived cells with stem-like properties)
# Procedure: as §5
# GSCs #4 and #9 = details: GSCs #4 and #9, apelin-supplemented MF
# Procedure: as §5
molecule,measurement,setting,value
O=c1sn(-c2cccc3ccccc23)c(=O)n1Cc1ccccc1 [tideglusib],effect on apelin-mediated increase in tumourspheres,GSC#1 [1],apelin was less potent at increasing tumourspheres and self-renewal
same,effect on apelin-mediated increase in self-renewal (LDA),GSC #1,apelin was less potent at increasing tumourspheres and self-renewal
"Cn1nnc2c(C(N)=O)ncn2c1=O [TMZ, Temozolomide]",concentrations needed for ALDH impairment comparable to MM54,"GSC#1 ALDH activity; GSC#1, TMZ 10–100 μM, Day 5",required much higher concentrations to achieve comparable results
same,"activity of the stem marker ALDH, TMZ alone",GSC#1 ALDH activity; TMZ alone,does not alter the activity of the stem marker ALDH
same,potentiation of MM54 effect on ALDH activity,"GSC#1 ALDH activity; TMZ with MM54 suboptimal dose <2 μM, MM54:TMZ 1:2.5, 1:5, 1:10",significantly potentiates the effects of MM54
same,"percentage of ALDH-positive cells, TMZ combined with suboptimal dose of MM54",GSC#1 ALDH activity; TMZ with suboptimal dose of MM54,profound alterations in the percentage of ALDH-positive cells
same,"viability, U87",[2]; TMZ,significantly reduced the viability
same,"viability, U87 grown as adherent differentiated cells","[2]; TMZ 100 μM, serum-containing medium, 3 days",reduces the viability
same,"viability, LN229",[3],significantly reduced the viability
same,concentrations needed for tumoursphere impairment comparable to MM54,[4],required much higher concentrations to achieve comparable results
same,"viability, GSCs grown as adherent differentiated cells","GSCs #1, #4, #9, and #12",reduces the viability
pyr-apelin-13,number of tumourspheres,[5]; n = 3,increased the number of tumourspheres compared to mitogen-free media
apelin-13,endothelial cell proliferation and vessel sprouting,endothelial cells,induces proliferation and vessel sprouting in endothelial cells
same,rescue of NESTIN and SOX2 expression and ability to form tumourspheres,GSC#1 [6],rescued by the addition of synthetic apelin
same,frequency of colony-forming cells,"[7]; GSC#1, apelin 1 μM in MF vs MF, two weeks, n = 2",increase in the frequency of colony-forming cells
same,frequency of stem cells,"[7]; GSCs #1, #2, #4, #9 and #12, apelin vs MF",increased the frequency of stem cells
same,proliferation (Ki67) of GSCs,GSCs #4 and #9,did not observe any obvious effect
same,number of tumourspheres,[5]; n = 3,increased the number of tumourspheres compared to mitogen-free media
same,potency at sustaining GSCs (tumourspheres),"[5]; 1 μM, compared among apelin-13, pyr-apelin-13 and apelin-36",most potent at sustaining GSCs
same,"tumourspheres, increasing concentrations","[5]; GSC#1, increasing apelin-13 concentrations in MF, n = 3",potent and sustained increase in tumourspheres from the lowest concentration
same,stem properties of GSCs in APLN-depleted EC-CM,"[5]; GSC#1 in siAPLN EC-CM plus apelin 1 μM, tumoursphere and LDA",restored this effect
same,ability of GSCs to expand as tumourspheres,"[5]; panel of 16 patient-derived GSCs, apelin-supplemented MF vs MF, n = 3",significantly increased the ability of GSCs to expand as tumourspheres
